≈ marks a conversion by molar mass, not a printed value.
Tests used:
Assay type in all cases: functional
Conditions in all cases: time 16-18 hrs
Klebsiella pneumoniae = test: Antibacterial activity against Klebsiella pneumoniae CICC 21611 after 16 to 18 hrs by broth microdilution method
Staphylococcus aureus [1] = test: Antibacterial activity against methicillin-resistant Staphylococcus aureus ATCC 43300 after 16 to 18 hrs by broth microdilution method
Escherichia coli = test: Antibacterial activity against Escherichia coli ATCC 25922 after 16 to 18 hrs by broth microdilution method
Staphylococcus aureus [2] = test: Antibacterial activity against methicillin-resistant Staphylococcus aureus ATCC 33591 after 16 to 18 hrs by broth microdilution method
Staphylococcus aureus [3] = test: Antibacterial activity against methicillin-susceptible Staphylococcus aureus ATCC 13709 after 16 to 18 hrs by broth microdilution method
Acinetobacter baumannii [4] = test: Antibacterial activity against drug-resistant Acinetobacter baumannii Bio 53272 after 16 to 18 hrs by broth microdilution method
Staphylococcus aureus [5] = test: Antibacterial activity against methicillin-susceptible Staphylococcus aureus ATCC 25923 after 16 to 18 hrs by broth microdilution method
Staphylococcus aureus [6] = test: Antibacterial activity against methicillin-susceptible Staphylococcus aureus ATCC 29213 after 16 to 18 hrs by broth microdilution method
Staphylococcus aureus [7] = test: Antibacterial activity against methicillin-resistant Staphylococcus aureus Bio-090770 after 16 to 18 hrs by broth microdilution method
Acinetobacter baumannii [8] = test: Antibacterial activity against Acinetobacter baumannii Bio 34235 after 16 to 18 hrs by broth microdilution method
[9] = test system: Staphylococcus epidermidis; test: Antibacterial activity against Staphylococcus epidermidis after 16 to 18 hrs by broth microdilution method

Compound | MIC (Klebsiella pneumoniae) | MIC (Staphylococcus aureus [1]) | MIC (Escherichia coli) | MIC (Staphylococcus aureus [2]) | MIC (Staphylococcus aureus [3]) | MIC (Acinetobacter baumannii [4]) | MIC (Staphylococcus aureus [5]) | MIC (Staphylococcus aureus [6]) | MIC (Staphylococcus aureus [7]) | MIC (Acinetobacter baumannii [8]) | MIC [9]
CCCC[C@H](CN(O)C=O)C(=O)N1CCC[C@H]1c1nnc(-c2ccns2)s1 | 16 µg/mL (≈ 39.1 µM) | 0.5 µg/mL (≈ 1.22 µM) | 64 µg/mL (≈ 156 µM) | 0.25 µg/mL (≈ 0.61 µM) | 1 µg/mL (≈ 2.44 µM) | 16 µg/mL (≈ 39.1 µM) | 1 µg/mL (≈ 2.44 µM) | 1 µg/mL (≈ 2.44 µM) | 2 µg/mL (≈ 4.88 µM) | 32 µg/mL (≈ 78.1 µM) | 0.5 µg/mL (≈ 1.22 µM)
CCCC[C@H](CN(O)C=O)C(=O)N1CCC[C@H]1c1nnc(-c2ccccc2OC)s1 | > 16 µg/mL | 0.5 µg/mL (≈ 1.16 µM) | 16 µg/mL (≈ 37 µM) | 2 µg/mL (≈ 4.62 µM) | 1 µg/mL (≈ 2.31 µM) | 16 µg/mL (≈ 37 µM) | 1 µg/mL (≈ 2.31 µM) | 0.5 µg/mL (≈ 1.16 µM) | 2 µg/mL (≈ 4.62 µM) | 16 µg/mL (≈ 37 µM) | 2 µg/mL (≈ 4.62 µM)
CCCC[C@H](CN(O)C=O)C(=O)N1CCC[C@H]1c1nnc(-c2ccc(F)cn2)s1 | > 16 µg/mL | 0.5 µg/mL (≈ 1.19 µM) | 16 µg/mL (≈ 38 µM) | 0.5 µg/mL (≈ 1.19 µM) | 2 µg/mL (≈ 4.74 µM) | 8 µg/mL (≈ 19 µM) | 2 µg/mL (≈ 4.74 µM) | 1 µg/mL (≈ 2.37 µM) | 2 µg/mL (≈ 4.74 µM) | 16 µg/mL (≈ 38 µM) | 2 µg/mL (≈ 4.74 µM)
CCCC[C@H](CN(O)C=O)C(=O)N1CCC[C@H]1c1nnc(-c2cc(OC)c(OC)c(OC)c2)s1 | > 16 µg/mL | 0.5 µg/mL (≈ 1.02 µM) | > 16 µg/mL | 0.25 µg/mL (≈ 0.508 µM) | 0.5 µg/mL (≈ 1.02 µM) | > 16 µg/mL | 1 µg/mL (≈ 2.03 µM) | 4 µg/mL (≈ 8.12 µM) | 1 µg/mL (≈ 2.03 µM) | > 16 µg/mL | 2 µg/mL (≈ 4.06 µM)
CCCC[C@H](CN(O)C=O)C(=O)N1CCC[C@H]1c1nnc(-c2ccc(C(C)(C)C)cc2)s1 | > 16 µg/mL | 1 µg/mL (≈ 2.18 µM) | > 16 µg/mL | 1 µg/mL (≈ 2.18 µM) | 2 µg/mL (≈ 4.36 µM) | > 16 µg/mL | 4 µg/mL (≈ 8.72 µM) | 2 µg/mL (≈ 4.36 µM) | 4 µg/mL (≈ 8.72 µM) | > 16 µg/mL | 4 µg/mL (≈ 8.72 µM)
CCCC[C@H](CN(O)C=O)C(=O)N1CCC[C@H]1c1nnc(-c2ccc(Br)s2)s1 | 32 µg/mL (≈ 65.6 µM) | 0.25 µg/mL (≈ 0.513 µM) | 64 µg/mL (≈ 131 µM) | 0.25 µg/mL (≈ 0.513 µM) | 2 µg/mL (≈ 4.1 µM) | 16 µg/mL (≈ 32.8 µM) | 1 µg/mL (≈ 2.05 µM) | 2 µg/mL (≈ 4.1 µM) | 2 µg/mL (≈ 4.1 µM) | 32 µg/mL (≈ 65.6 µM) | 1 µg/mL (≈ 2.05 µM)
CCCC[C@H](CN(O)C=O)C(=O)N1CCC[C@H]1c1nnc(-c2sccc2F)s1 | 16 µg/mL (≈ 37.5 µM) | 0.5 µg/mL (≈ 1.17 µM) | 64 µg/mL (≈ 150 µM) | 0.5 µg/mL (≈ 1.17 µM) | 0.5 µg/mL (≈ 1.17 µM) | 16 µg/mL (≈ 37.5 µM) | 0.5 µg/mL (≈ 1.17 µM) | 0.5 µg/mL (≈ 1.17 µM) | 2 µg/mL (≈ 4.69 µM) | 16 µg/mL (≈ 37.5 µM) | 1 µg/mL (≈ 2.34 µM)
CCCC[C@H](CN(O)C=O)C(=O)N1CCC[C@H]1c1nnc(-c2ccc(C(F)(F)F)cc2F)s1 | > 16 µg/mL | 1 µg/mL (≈ 2.05 µM) | > 16 µg/mL | 0.25 µg/mL (≈ 0.512 µM) | 2 µg/mL (≈ 4.09 µM) | > 16 µg/mL | 2 µg/mL (≈ 4.09 µM) | 2 µg/mL (≈ 4.09 µM) | 1 µg/mL (≈ 2.05 µM) | > 16 µg/mL | 4 µg/mL (≈ 8.19 µM)
CCCC[C@H](CN(O)C=O)C(=O)N1CCC[C@H]1c1nnc(-c2cccc3ccccc23)s1 | > 16 µg/mL | 16 µg/mL (≈ 35.4 µM) | > 16 µg/mL | 4 µg/mL (≈ 8.84 µM) | 16 µg/mL (≈ 35.4 µM) | > 16 µg/mL | 16 µg/mL (≈ 35.4 µM) | 16 µg/mL (≈ 35.4 µM) | 16 µg/mL (≈ 35.4 µM) | > 16 µg/mL | 2 µg/mL (≈ 4.42 µM)
CN[C@H](CC(C)C)C(=O)N[C@H]1C(=O)N[C@@H](CC(N)=O)C(=O)N[C@H]2C(=O)N[C@H]3C(=O)N[C@H](C(=O)N[C@H](C(=O)O)c4cc(O)cc(O)c4-c4cc3ccc4O)[C@H](O)c3ccc(c(Cl)c3)Oc3cc2cc(c3O[C@@H]2O[C@H](CO)[C@@H](O)[C@H](O)[C@H]2O[C@H]2C[C@](C)(N)[C@H](O)[C@H](C)O2)Oc2ccc(cc2Cl)[C@H]1O [VANCOMYCIN] | 16 µg/mL (≈ 11 µM) | 0.25 µg/mL (≈ 0.173 µM) | 16 µg/mL (≈ 11 µM) | – | – | 16 µg/mL (≈ 11 µM) | – | – | – | 16 µg/mL (≈ 11 µM) | 16 µg/mL (≈ 11 µM)
